Assay results published in US20210346357A1 (priority 2020, published 2021).
pIC50: −log10 of the molar value. Where two headings read alike, the source gives them in different places.

How the values were obtained:
[1] = tested on: TSLP-evoked TARC release in human peripheral blood mononuclear cells; assay: Inhibition of TSLP-evoked TARC release in human PBMC; assay type: cell-based; conditions: PBMC from 3 to 5 donors, TSLP 10 ng/mL, 48 hours, read-out: pIC50 ± st. dev., inhibition of TSLP-evoked TARC release (converted)
[2] = Pharmacokinetics in plasma and lung in mouse; assay type: in vivo; conditions: single oral aspiration 0.2 mg/mL 50 μL
Description: Assay 5: Pharmacokinetics in Plasma and Lung in Mouse
Plasma and lung concentrations of test compounds and ratios thereof were determined in the following manner. BALB/c mice from Charles River Laboratories were used in the assay. Test compounds were individually formulated in 20% propylene glycol in pH 4 citrate buffer at a concentration of 0.2 mg/mL and 50 μL of the dosing solution was introduced into the trachea of a mouse by oral aspiration. At various time points (typically 0.167, 2, 6, 24 hr) post dosing, blood samples were removed via cardiac puncture and intact lungs were excised from the mice. Blood samples were centrifuged (Eppendorf centrifuge, 5804R) for 4 minutes at approximately 12,000 rpm at 4° C. to collect plasma. […] Plasma and lung concentrations of test compound were determined by LC-MS analysis against analytical standards constructed into a standard curve in the test matrix. A lung-to-plasma ratio was determined as the ratio of the lung AUC in μg hr/g to the plasma AUC in μg hr/mL, where AUC is conventionally defined as the area under the curve of test compound concentration vs. time.

[3] = target: Abl1 (Homo sapiens, UniProt P00519); assay: Biochemical ABL1 kinase assay (33P-ATP); conditions: at 1 μM; ATP 10 μM
[4] = target: Abl2 (Homo sapiens, UniProt P42684); assay: biochemical; conditions: ATP 10 μM
[5] = Phase 1 SAD/MAD study of inhaled compound 1 in healthy subjects; assay type: in vivo, human; conditions: for AUC(0-t): read-out: AUC0-24
Description: This is a phase 1, 2-part, double-blind, randomized, placebo controlled, sponsor-open, SAD (Part A) and MAD (Part B). Subjects will participate in only 1 cohort in only 1 study part.
Part A (SAD): three (3) cohorts of 8 healthy subjects (6 active and 2 placebo). In each cohort, subjects received a single inhaled dose of compound 1 or placebo. […] Cardiodynamic monitoring via Holter monitors was conducted pre-dose and for at least 24 hours following dosing on Day 1 in each cohort, with rest periods for cardiodynamic electrocardiogram (ECG) extractions time matched to the PK sampling time points.
Part B (MAD): three (3) cohorts of 10 healthy subjects (8 active and 2 placebo). In each cohort, subjects received inhaled doses once daily (QD) for 7 days. […] Blood samples for PK assessment were also collected pre-dose on the morning of Days 3 through 6. Cardiodynamic monitoring via Holter monitors may be conducted pre-dose on Day 1 and pre-dose and for at least 24 hours following dosing on the morning of Day 7 in each cohort with rest periods for cardiodynamic ECG extractions time matched to the PK sampling time points.
Parts A and B: safety (i.e., physical examinations, vital signs, 12-lead safety ECGs, spirometry, clinical laboratory tests, and adverse events [AEs]) were assessed throughout the study; blood and urine samples were collected for safety assessments. All subjects who received at least one dose of study drug (including subjects who terminated the study early) returned to the CRU 7 (±2) days after the last study drug administration for follow-up procedures, and to determine if any AEs have occurred since the last study visit.
Part B: subjects received inhaled doses QD for 7 days using a nebulizer device.
Morning doses on Days 1 and 7 were administered under fasting conditions due to cardiodynamic monitoring. On all other times, doses were administered at least 30 minutes after completion of a meal or snack. Hour 0 was defined as the beginning of inhalation in each morning dose administration.
AUC0-24, AUC0-∞, Cmax and t1/2 are presented as arithmetic mean (standard deviation). Tmax is presented as median (minimum, maximum).

[6] = tested on: IL-13-induced STAT6 phosphorylation in the human bronchial epithelial cell line BEAS-2B; assay: IL-13-induced STAT6 phosphorylation in BEAS-2B cells; assay type: cell-based
[7] = healthy subjects, 1 mg to 10 mg
[8] = human, plasma, inhaled or intranasal, 1 mg, healthy subjects, inhaled 1 mg QD, Day 1, mean
[9] = human, plasma, inhaled or intranasal, 1 mg, healthy subjects, inhaled 1 mg QD, Day 7, mean
[10] = human, plasma, inhaled or intranasal, 1 mg, healthy subjects, single inhaled dose 1 mg, mean
[11] = human, plasma, inhaled or intranasal, 3 mg, healthy subjects, inhaled 3 mg QD, Day 1, mean
[12] = human, plasma, inhaled or intranasal, 3 mg, healthy subjects, inhaled 3 mg QD, Day 7, mean
[13] = human, plasma, inhaled or intranasal, 3 mg, healthy subjects, single inhaled dose 3 mg, mean
[14] = human, plasma, inhaled or intranasal, 10 mg, healthy subjects, inhaled 10 mg QD, Day 1, mean
[15] = human, plasma, inhaled or intranasal, 10 mg, healthy subjects, inhaled 10 mg QD, Day 7, mean
[16] = human, plasma, inhaled or intranasal, 10 mg, healthy subjects, single inhaled dose 10 mg, mean

Sequence of Abl2 (P42684 whole entry): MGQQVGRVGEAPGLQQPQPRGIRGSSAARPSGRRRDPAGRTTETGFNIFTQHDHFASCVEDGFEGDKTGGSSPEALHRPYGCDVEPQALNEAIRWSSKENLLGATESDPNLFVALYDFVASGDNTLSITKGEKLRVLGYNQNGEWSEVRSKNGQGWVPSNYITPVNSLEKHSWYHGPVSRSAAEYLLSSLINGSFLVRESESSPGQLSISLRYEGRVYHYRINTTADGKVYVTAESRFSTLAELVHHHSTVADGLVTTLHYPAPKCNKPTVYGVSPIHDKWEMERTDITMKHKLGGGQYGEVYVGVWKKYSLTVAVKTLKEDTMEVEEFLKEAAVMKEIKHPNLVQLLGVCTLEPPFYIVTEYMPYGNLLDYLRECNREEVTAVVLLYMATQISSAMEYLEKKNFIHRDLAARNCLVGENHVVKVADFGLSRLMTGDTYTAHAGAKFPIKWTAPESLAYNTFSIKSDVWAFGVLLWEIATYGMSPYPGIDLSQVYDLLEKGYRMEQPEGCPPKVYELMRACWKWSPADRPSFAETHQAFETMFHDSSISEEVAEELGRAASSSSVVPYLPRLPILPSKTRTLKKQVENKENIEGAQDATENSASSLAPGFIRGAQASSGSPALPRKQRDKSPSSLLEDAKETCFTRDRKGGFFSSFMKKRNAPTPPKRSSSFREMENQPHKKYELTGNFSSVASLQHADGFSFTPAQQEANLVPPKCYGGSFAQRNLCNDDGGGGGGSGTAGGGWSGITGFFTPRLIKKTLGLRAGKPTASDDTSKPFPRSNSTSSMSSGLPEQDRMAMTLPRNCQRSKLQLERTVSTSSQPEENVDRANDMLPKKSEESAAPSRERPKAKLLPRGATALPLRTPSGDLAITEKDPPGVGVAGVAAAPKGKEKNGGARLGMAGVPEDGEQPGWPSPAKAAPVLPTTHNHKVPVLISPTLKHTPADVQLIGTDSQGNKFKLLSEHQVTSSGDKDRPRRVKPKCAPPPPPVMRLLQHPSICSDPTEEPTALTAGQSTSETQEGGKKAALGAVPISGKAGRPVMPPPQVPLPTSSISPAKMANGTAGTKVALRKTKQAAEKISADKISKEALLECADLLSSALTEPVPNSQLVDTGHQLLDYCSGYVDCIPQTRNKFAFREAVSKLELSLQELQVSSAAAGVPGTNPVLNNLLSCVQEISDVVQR
Sequence of Abl1 (P00519 whole entry): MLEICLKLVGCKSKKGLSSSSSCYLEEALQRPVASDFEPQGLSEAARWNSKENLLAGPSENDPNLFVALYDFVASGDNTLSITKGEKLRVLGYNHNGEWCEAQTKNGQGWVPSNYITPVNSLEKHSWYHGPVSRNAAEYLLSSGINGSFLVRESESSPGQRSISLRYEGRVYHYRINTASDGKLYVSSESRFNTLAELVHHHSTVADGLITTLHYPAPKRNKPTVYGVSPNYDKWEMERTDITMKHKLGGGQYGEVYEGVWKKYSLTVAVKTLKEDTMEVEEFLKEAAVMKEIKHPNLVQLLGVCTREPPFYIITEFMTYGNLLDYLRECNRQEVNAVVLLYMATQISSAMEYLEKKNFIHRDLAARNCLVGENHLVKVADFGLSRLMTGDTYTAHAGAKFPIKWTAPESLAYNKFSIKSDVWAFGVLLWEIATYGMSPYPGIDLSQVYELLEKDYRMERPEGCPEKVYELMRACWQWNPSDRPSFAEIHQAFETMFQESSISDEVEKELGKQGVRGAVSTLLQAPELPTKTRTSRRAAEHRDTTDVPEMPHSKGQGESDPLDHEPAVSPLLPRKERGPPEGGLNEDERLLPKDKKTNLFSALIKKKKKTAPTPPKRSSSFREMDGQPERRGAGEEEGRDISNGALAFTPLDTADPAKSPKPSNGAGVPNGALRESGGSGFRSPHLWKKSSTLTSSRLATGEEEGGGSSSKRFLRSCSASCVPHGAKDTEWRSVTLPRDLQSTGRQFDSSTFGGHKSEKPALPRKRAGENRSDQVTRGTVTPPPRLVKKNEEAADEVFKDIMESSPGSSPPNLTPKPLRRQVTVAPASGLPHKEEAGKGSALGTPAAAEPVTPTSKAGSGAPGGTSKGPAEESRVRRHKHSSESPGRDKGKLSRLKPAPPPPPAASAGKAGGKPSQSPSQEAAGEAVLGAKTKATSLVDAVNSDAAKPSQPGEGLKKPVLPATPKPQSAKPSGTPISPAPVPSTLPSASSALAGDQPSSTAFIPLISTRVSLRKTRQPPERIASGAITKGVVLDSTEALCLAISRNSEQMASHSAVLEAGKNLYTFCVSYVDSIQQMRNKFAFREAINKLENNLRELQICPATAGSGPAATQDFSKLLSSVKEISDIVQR

Structure (SMILES): CCc1cc(O)ccc1-c1ccc2c(-c3nc4c([nH]3)CN(C(C)C)[C@H](C(=O)N3CC(N(C)C)C3)C4)n[nH]c2c1 [Compound 1, (S)-(3-(dimethylamino)azetidin-1-yl)(2-(6-(2-ethyl-4-hydroxyphenyl)-1H-indazol-3-yl)-5-isopropyl-4,5,6,7-tetrahydro-3H-imidazo[4,5-c]pyridin-6-yl)methanone]
- IC50 [1]: 0.0631 µM
- Lung Tissue AUC(0-24) [2]: 54.5 µg·h/g
- Plasma AUC(0-24) [2]: 0.943 µg·h/mL
- inhibition at 1 µM [3]: 90%
- pIC50 [4]: 7.82
- changes in laboratory parameters, vital signs, or ECGs [5, 7]: no clinically relevant changes
- severity of adverse events [5, 7]: mild or moderate
- Tmax ([5]; healthy subjects, inhaled 1 mg QD, Day 1, median): 1.0 h
- Tmax ([5]; healthy subjects, inhaled 1 mg QD, Day 7, median): 1.0 h
- Tmax ([5]; healthy subjects, inhaled 3 mg QD, Day 1, median): 1.0 h
- Tmax ([5]; healthy subjects, inhaled 3 mg QD, Day 7, median): 1.0 h
- Tmax ([5]; healthy subjects, inhaled 10 mg QD, Day 1, median): 1.0 h
- Tmax ([5]; healthy subjects, inhaled 10 mg QD, Day 7, median): 1.0 h
- tolerability ([5]; healthy subjects, single daily doses 1 mg to 10 mg for 7 days): well tolerated
- t1/2 ([5]; healthy subjects, single inhaled dose 3 mg, mean): 24.73 h
- Cmax [5, 8]: 0.00533 µg/mL
- AUC(0-t) [5, 8]: 0.0184 µg·h/mL
- Cmax [5, 9]: 0.0057 µg/mL
- AUC(0-t) [5, 9]: 0.0216 µg·h/mL
- Cmax [5, 10]: 0.00572 µg/mL
- AUC(0-t) [5, 10]: 0.0185 µg·h/mL
- half-life ([5]; human, plasma, inhaled or intranasal, 1 mg, healthy subjects, single inhaled dose 1 mg, mean, read-out: t1/2 (converted)): 19.3 h
- Cmax [5, 11]: 0.0178 µg/mL
- AUC(0-t) [5, 11]: 0.0481 µg·h/mL
- Cmax [5, 12]: 0.0182 µg/mL
- AUC(0-t) [5, 12]: 0.0523 µg·h/mL
- Cmax [5, 13]: 0.0141 µg/mL
- AUC(0-t) [5, 13]: 0.0433 µg·h/mL
- half-life ([5]; human, plasma, inhaled or intranasal, 3 mg, healthy subjects, single inhaled dose 3 mg, mean, read-out: t1/2 (converted)): 24.7 h
- Cmax [5, 14]: 0.0546 µg/mL
- AUC(0-t) [5, 14]: 0.191 µg·h/mL
- Cmax [5, 15]: 0.0536 µg/mL
- AUC(0-t) [5, 15]: 0.204 µg·h/mL
- Cmax [5, 16]: 0.0509 µg/mL
- AUC(0-t) [5, 16]: 0.153 µg·h/mL
- half-life ([5]; human, plasma, inhaled or intranasal, 10 mg, healthy subjects, single inhaled dose 10 mg, mean, read-out: t1/2 (converted)): 23.1 h
- Tmax ([5]; human, plasma, inhaled or intranasal, healthy subjects, following single and multiple inhaled doses, read-out: Tmax): ~1 h
- half-life ([5]; human, plasma, inhaled or intranasal, healthy subjects, following single and multiple inhaled doses, read-out: terminal elimination half-life (converted)): ~24 h
- AUC(0-inf) ([5]; human, plasma, inhaled or intranasal, healthy subjects, single inhaled dose 1 mg, mean): 0.0207 µg·h/mL
- Tmax ([5]; human, plasma, inhaled or intranasal, healthy subjects, single inhaled dose 1 mg, median, read-out: Tmax): 1 h
- AUC(0-inf) ([5]; human, plasma, inhaled or intranasal, healthy subjects, single inhaled dose 3 mg, mean): 0.0486 µg·h/mL
- Tmax ([5]; human, plasma, inhaled or intranasal, healthy subjects, single inhaled dose 3 mg, median, read-out: Tmax): 1 h
- AUC(0-inf) ([5]; human, plasma, inhaled or intranasal, healthy subjects, single inhaled dose 10 mg, mean): 0.169 µg·h/mL
- Tmax ([5]; human, plasma, inhaled or intranasal, healthy subjects, single inhaled dose 10 mg, median, read-out: Tmax): 1 h
- neutrophil and hemoglobin reductions, lipid changes ([5]; inhaled administration): not observed
- IC50 ([6]; JAK IC50 divided by the fraction unbound, read-out: binding-corrected JAK IC50): 0.362 mg/L
- IC50 ([6]; obtained from pIC50 of 7.9, based on a MW of 545.7, read-out: JAK IC50): 0.0069 mg/L
- IC50 ([6]; read-out: pIC50 for IL-13-induced STAT6 phosphorylation (converted)): 0.0126 µM
